Reference: patent US20020016468A1 (published 2002)

Structure (SMILES)	melting point [°C]
CC[S+]([O-])c1c(C(N)=S)nn(-c2c(Cl)cc(C(F)(F)F)cc2Cl)c1N (stereo not shown)	167
CSc1c(C(N)=S)nn(-c2c(Cl)cc(C(F)(F)F)cc2Cl)c1N	161
NC(=S)c1nn(-c2c(Cl)cc(C(F)(F)F)cc2Cl)c(N)c1SC(F)(F)F	182
C[S+]([O-])c1c(C(N)=S)nn(-c2ccc(C(F)(F)F)cc2Cl)c1N (stereo not shown)	153.5
CC[S+]([O-])c1c(C(N)=S)nn(-c2c(Cl)cc(OC(F)(F)F)cc2Cl)c1N (stereo not shown)	102

Continued, values first:

melting point [°C]	Structure (SMILES)
192	C[S+]([O-])c1c(C(N)=S)nn(-c2c(Cl)cc(C(F)(F)F)cc2Cl)c1N (stereo not shown)
137	C[S+]([O-])c1c(C(N)=S)nn(-c2c(Cl)cc(OC(F)(F)F)cc2Cl)c1N (stereo not shown)
188.5	C[S+]([O-])c1c(C(N)=S)nn(-c2c(Cl)cc(C(F)(F)F)cc2Br)c1N (stereo not shown)
231	CS(=O)(=O)c1c(C(N)=S)nn(-c2c(Cl)cc(C(F)(F)F)cc2Cl)c1N
113.5	CC[S+]([O-])c1c(C(N)=S)nn(-c2c(Cl)cc(C(F)(F)F)cc2Br)c1N (stereo not shown)
